From the supplement of paper PMC10307832 come the findings set out here.

Compound in the test “BMX-IN-1 + Luminespib”: C=CC(=O)Nc1cc(-n2c(=O)ccc3cnc4ccc(-c5ccc(NS(C)(=O)=O)cc5)cc4c32)ccc1C [BMX-IN-1] + CCNC(=O)c1noc(-c2cc(C(C)C)c(O)cc2O)c1-c1ccc(CN2CCOCC2)cc1 [Luminespib] (partner 0.01 µM)
The experiment in a line: relative viability (nuclei count vs DMSO), 5 days (fraction); higher = more cells survive. The method, boiled down:
(§1)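 Values are medians from duplicate plates. Each reflects relative viability, defined as the nuclei count of treated wells over that of vehicle wells. Lung cancer cell lines in 1536-well plates were pin-tool dosed one day after seeding with one drug alone or with a fixed anchor-drug dose plus five library-drug doses (not always all listed) in √10 steps, then fixed, stained and imaged at 4× after 5 days.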

Compound in the test “Ibrutinib + Navitoclax”: C=CC(=O)N1CCC[C@@H](n2nc(-c3ccc(Oc4ccccc4)cc3)c3c(N)ncnc32)C1 [Ibrutinib] + CC1(C)CCC(c2ccc(Cl)cc2)=C(CN2CCN(c3ccc(C(=O)NS(=O)(=O)c4ccc(N[C@H](CCN5CCOCC5)CSc5ccccc5)c(S(=O)(=O)C(F)(F)F)c4)cc3)CC2)C1 [Navitoclax] (partner 0.5 µM)
The description is as above. In outline: as §1

As to NCI-H661, the relative viability in the test with BMX-IN-1 + Luminespib (first compound 0.02 µM) worked out at 1; in the test with BMX-IN-1 + Luminespib (first compound 0.2 µM), 0.916; with BMX-IN-1 + Luminespib (first compound 0.6325 µM), 1.03; with BMX-IN-1 + Luminespib (first compound 2 µM), 0.863.

Regarding NCI-H727, the relative viability with BMX-IN-1 + Luminespib (first compound 0.02 µM) was 0.33; with BMX-IN-1 + Luminespib (first compound 0.2 µM), 0.366; with BMX-IN-1 + Luminespib (first compound 0.6325 µM), 0.343; with BMX-IN-1 + Luminespib (first compound 2 µM) it was 0.243; with Ibrutinib + Navitoclax (first compound 0.005 µM), 0.475; in the test with Ibrutinib + Navitoclax (first compound 0.01581 µM), 0.405. Further, the relative viability amounted to 0.374 in the test with Ibrutinib + Navitoclax (first compound 0.05 µM), 0.449 in the test with Ibrutinib + Navitoclax (first compound 0.1581 µM) and 0.42 with Ibrutinib + Navitoclax (first compound 0.5 µM).

Consider NCI-H838, for which the relative viability in the test with BMX-IN-1 + Luminespib (first compound 0.02 µM) turned out to be 0.245; with BMX-IN-1 + Luminespib (first compound 0.2 µM), 0.291; in the test with BMX-IN-1 + Luminespib (first compound 0.6325 µM), 0.302; with BMX-IN-1 + Luminespib (first compound 2 µM) it was 0.294; with Ibrutinib + Navitoclax (first compound 0.005 µM), 1.18; with Ibrutinib + Navitoclax (first compound 0.01581 µM) it was 1.12. For the same cell line, the relative viability in the test with Ibrutinib + Navitoclax (first compound 0.05 µM) came to 1.23; with Ibrutinib + Navitoclax (first compound 0.1581 µM), 1.17; in the test with Ibrutinib + Navitoclax (first compound 0.5 µM), 1.21.

NCI-H1299: the relative viability in the test with Ibrutinib + Navitoclax (first compound 0.005 µM) was determined as 1.07; with Ibrutinib + Navitoclax (first compound 0.01581 µM), 1.02; in the test with Ibrutinib + Navitoclax (first compound 0.05 µM), 1.11; in the test with Ibrutinib + Navitoclax (first compound 0.1581 µM), 1.07; with Ibrutinib + Navitoclax (first compound 0.5 µM), 1.04.

Take NCI-H1355: the relative viability with BMX-IN-1 + Luminespib (first compound 0.02 µM) is 0.75; with BMX-IN-1 + Luminespib (first compound 0.2 µM), 0.724; with BMX-IN-1 + Luminespib (first compound 0.6325 µM), 0.699; with BMX-IN-1 + Luminespib (first compound 2 µM), 0.711; in the test with Ibrutinib + Navitoclax (first compound 0.01581 µM) it was 0.904; with Ibrutinib + Navitoclax (first compound 0.05 µM) it was 0.918. Besides, the relative viability in the test with Ibrutinib + Navitoclax (first compound 0.1581 µM) was 0.96; with Ibrutinib + Navitoclax (first compound 0.5 µM), 0.801.

Consider NCI-H1395, for which the relative viability in the test with BMX-IN-1 + Luminespib (first compound 0.02 µM) is 0.745; with BMX-IN-1 + Luminespib (first compound 0.2 µM), 0.546; with BMX-IN-1 + Luminespib (first compound 0.6325 µM), 0.71; with BMX-IN-1 + Luminespib (first compound 2 µM) it was 0.887; with Ibrutinib + Navitoclax (first compound 0.005 µM) it was 1.07; with Ibrutinib + Navitoclax (first compound 0.05 µM), 1.15. In addition, the figures for the relative viability in the test with Ibrutinib + Navitoclax (first compound 0.1581 µM) and with Ibrutinib + Navitoclax (first compound 0.5 µM) were 1.54 and 1.17, respectively.

Consider NCI-H1437, for which the relative viability was 1.41 in the test with BMX-IN-1 + Luminespib (first compound 0.02 µM); 1.23 in the test with BMX-IN-1 + Luminespib (first compound 0.2 µM); 1.15 with BMX-IN-1 + Luminespib (first compound 0.6325 µM); 1.16 with BMX-IN-1 + Luminespib (first compound 2 µM); 1.14 with Ibrutinib + Navitoclax (first compound 0.005 µM); 1.11 with Ibrutinib + Navitoclax (first compound 0.05 µM). Also, the relative viability was found to be 1.13 with Ibrutinib + Navitoclax (first compound 0.1581 µM) and 1.14 with Ibrutinib + Navitoclax (first compound 0.5 µM).

On to NCI-H1563, for which the relative viability is 0.549 in the test with BMX-IN-1 + Luminespib (first compound 0.02 µM), 0.461 with BMX-IN-1 + Luminespib (first compound 0.2 µM), 0.523 with BMX-IN-1 + Luminespib (first compound 0.6325 µM) and 0.521 with BMX-IN-1 + Luminespib (first compound 2 µM).

With NCI-H1623, the relative viability with BMX-IN-1 + Luminespib (first compound 0.02 µM) was determined as 0.431; with BMX-IN-1 + Luminespib (first compound 0.2 µM), 0.52; in the test with BMX-IN-1 + Luminespib (first compound 0.6325 µM) it was 0.804; in the test with BMX-IN-1 + Luminespib (first compound 2 µM), 0.484.

NCI-H1650: the relative viability with BMX-IN-1 + Luminespib (first compound 0.02 µM) turned out to be 0.205; in the test with BMX-IN-1 + Luminespib (first compound 0.2 µM) it was 0.198; with BMX-IN-1 + Luminespib (first compound 0.6325 µM), 0.221; with BMX-IN-1 + Luminespib (first compound 2 µM), 0.203; with Ibrutinib + Navitoclax (first compound 0.005 µM), 0.998; with Ibrutinib + Navitoclax (first compound 0.01581 µM), 0.932. Also, the relative viability with Ibrutinib + Navitoclax (first compound 0.05 µM) came to 1.24; in the test with Ibrutinib + Navitoclax (first compound 0.1581 µM), 1.25; in the test with Ibrutinib + Navitoclax (first compound 0.5 µM), 1.1.

Consider NCI-H1651, for which the relative viability in the test with BMX-IN-1 + Luminespib (first compound 0.02 µM) was determined as 1.12; with BMX-IN-1 + Luminespib (first compound 0.2 µM), 0.911; in the test with BMX-IN-1 + Luminespib (first compound 0.6325 µM) it was 1.05; with BMX-IN-1 + Luminespib (first compound 2 µM) it was 0.773; in the test with Ibrutinib + Navitoclax (first compound 0.005 µM), 0.853; with Ibrutinib + Navitoclax (first compound 0.01581 µM), 1.03. For the same cell line, the relative viability with Ibrutinib + Navitoclax (first compound 0.05 µM) was 1.12; with Ibrutinib + Navitoclax (first compound 0.1581 µM), 1; with Ibrutinib + Navitoclax (first compound 0.5 µM), 0.837.
